Experimental data published in patent US7989502B2, “Intranasal delivery of modafinil” (SRI International, priority 2009, dated 2011).

How the values were obtained:
male Sprague Dawley rats = assay: Intranasal drug delivery snort model, EEG/EMG sleep-wake behavior in rats; format: in vivo, rat
Description: Formulation of Intranasal Drugs. Modafinil (Sigma) was solubilized using LME comprised of equal amounts of olive oil and phosphatidyl serine sonicated in succinate buffer, pH 8; modafinil concentrations 0.2 and 2 mg/ml. Control rats received either saline alone or lipid emulsion in succinate buffer, pH 8
Animals and surgery. Anesthetized male Sprague Dawley rats (250-350 g) were implanted with sleep recording electrodes to monitor electroencephalographic (EEG) and electromyographic (EMG) activities. A femoral vein catheter was also implanted and dorsally extended subcutaneously to exit at the posterior end of the EEG/EMG implant. The rats were individually housed in a controlled environment (12 h lights on/off; lights on, 8 am) with access to food and water ad libitum. The animals were allowed to recover for approximately 7-10 days following surgery and habituated to the recording chambers. Baseline behavior was continuously recorded for 48 to 60 h prior to experiment initiation and for at least 24 h post drug administration. Rats were sacrificed by pentobarbital administration (200 mg/kg, i.v.) into the femoral catheter without handling the animal, Greco et al., Neuroscience. 1999; 93(4):1369-74; Vazquez et al., J Cell Biochem. 2008 Dec. 15; 105(6):1472-84.
Intranasal drug delivery—snort model. Three hours into the lights on period, each rat was anesthetized with ˜3% isoflurane in O2 and placed on its back. The head and neck of the rat remained flat and horizontal throughout the entire procedure to prevent any drug from draining down the back of the throat. Reflexes were monitored periodically and anesthetic level was reduced to ˜1.5% isoflurane in O2 for anesthesia maintenance. Each drug was given in 6-7 ul administered with a manual pipette every 2 minutes into alternating nostrils (total volume=50 ul). Two minutes after the last drop was administered, the rat was removed from anesthesia, reconnected to the tethering cable and placed in the recording chamber. The effect of intranasal drug delivery on sleep-wake behavior was monitored for 24 h post-intranasal drug delivery.
Results. Rats awakened within one minute post modafinil administration. Control rats awoke within 3-5 minutes after termination of anesthesia. EEG and EMG activity during wakefulness, slow wave sleep (SWS), and rapid eye movement (REM) sleep were captured digitally, and subsequently scored manually in 10 sec epochs, averaged into one minute bins and represented graphically by hour for approximately 5 to 8 h post drug delivery. Representative individual hypnograms show the wake-promoting effects via intranasal delivery directly to the CNS. Modafinil induced wakefulness in rats at a 100-fold lower dose via our intranasal route than what has been previously published using traditional routes of administration (ie. i.v., oral).
We designed protocols to further optimize concentrations of sleep and wake promoting drugs for intranasal delivery. In exemplary experiments, the drugs are administered to rats in the following concentrations: Modafinil: 0.2 mg/ml (n=3), 0.1 mg/ml (n=3), 0 (LME only, n=3), and the rats instrumented and tested as detailed above.
Sleep Scoring and Statistical Analyses. EEG/EMG recordings are scored using SleepSign™ for Animals (Kissei Comtec, Irvine, Calif.), manually verified for accuracy and stored to disk. Waking is identified by the presence of desynchronized EEG readings and high EMG activity. SWS is identified by high amplitude slow waves together with a low EMG tone relative to waking. REM sleep is identified by the presence of regular theta activity coupled with low EMG relative to SWS. REM sleep is scored only when it follows at least a 15 s episode of SWS. All sleep-wake parameters are analyzed for each hour of the recording periods, then averaged to yield 24 h baseline estimates. A similar analysis is performed prior to and post intranasal drug administration. […]

rats = assay: Chronic sleep deprivation paradigm, EEG/EMG recordings and roto-rod performance; format: in vivo, rat; conditions: rats deprived of sleep 6 h on 3 consecutive days
Description: In our chronic sleep deprivation paradigm rats are deprived of sleep for 6 h on 3 consecutive days starting at the beginning of the lights on period, when the pressure to sleep is maximal. The sleep deprivation begins with the administration of modafinil and is immediately followed by roto-rod testing. EEG/EMG recordings resumes once the rats are returned to the cage. If needed, the rats are kept awake for the remainder of the deprivation period by gentle handling. At the end of the sleep deprivation, the rats are again subjected to roto-rod testing. The sleep deprivation protocol is executed for 3 consecutive days. On the third day, half of the rats are sacrificed immediately following the sleep deprivation period. A second group of rats are sacrificed after 1-2 h of recovery sleep (RS). […]
In this protocol, the intranasal delivery of modafinil is assayed by two behavioral indicies—EEG/EMG recordings of sleep-wakefulness and performance (wheel running, roto-rod assay). […] The EEG/EMG data is analyzed as detailed above. For the roto-rod testing, the amount of time each rat spends on the wheel is analyzed and compared to control. Qualitative and quantitative analysis sets are generated and descriptive statistical comparisons and two-way ANOVA with post hoc multiple comparisons are used to evaluate changes in behavior/wheel running as a function of the day and drug, assuming equal variances.

healthy male subjects = assay: Intranasal modafinil in chronically sleep deprived humans (simulated military operation, 18 h continuous work); format: in vivo, human; conditions: 2, 10, 50 and 200 ug groups, VIANASE or OPTINOSE, given 9 h into the work period; versus LME-only and systemically-administered modafinil controls
Description: 4. Efficacy of our intranasal drug delivery in chronically sleep deprived humans is also readily confirmed using established methods. Our preferred protocol is based on the results of a series of experiments that tested the treatment efficacy of a hypnotic-stimulant combination to maintain sleep quality, performance, and alertness (Batéjat, et al., Aviat Space Environ Med. 2006 May; 77(5):515-25). Here, healthy male subjects are given zolpidem then allowed to sleep for 6 h prior to being subjected to a simulated military operation of 18 h continuous work. Modafinil (2, 10, 50 and 200 ug dosage treatment groups) is administered using (a) VIANASE electronic atomizer (Bothell, Wash.) or (b) OPTINOSE nasal delivery system (Oslo, Norway) 9 h into the work period. The effects of drugs on sleep-wake behavior (EEG recordings), cortical activation (Critical Flicker Frequency test) and performance levels (reaction time, memory search, attention, dual task, computerized Stroop tests) are monitored.

## NC(=O)C[S+]([O-])C(c1ccccc1)c1ccccc1 (stereo not drawn) [Modafinil]
Male Sprague Dawley rats; 2.5 ug to a 350 g rat
  effective dose, body-weight equivalent: 7.14 µg/kg
Male Sprague Dawley rats; based on a human weighing 70 kg, from the rat effective dose
  translated human dose: 0.5 mg
Male Sprague Dawley rats; in 50 ul of LME to a 350 g rat, intranasal
  effective dose administered: 2.5 µg
Male Sprague Dawley rats; rat, intranasal LME
  fold lower dose inducing wakefulness via intranasal route than published for traditional routes (i.v., oral): 100 fold
Male Sprague Dawley rats; rat, intranasal snort delivery in LME under isoflurane anesthesia, control rats awoke within 3-5 minutes after termination of anesthesia
  time to awakening post modafinil administration: one
Male Sprague Dawley rats; rat, intranasal, 50 ul of LME
  effective concentration of modafinil in the lipid microemulsion: 0.05 mg/mL
Male Sprague Dawley rats; rat, under isoflurane anesthesia
  effect of attempting to deliver an intranasal dose comparable to that given orally: the excitatory effects overcame the anesthesia and the animals woke up
rats
  effectiveness of intranasal delivery under chronic stressful conditions: Our results confirm the effectiveness of intranasal delivery of modafinil under chronic stressful conditions
Healthy male subjects
  performance and alertness throughout the 18 h work period: maintain elevated performance and alertness over LME-only negative controls and even over systemically-administered modafinil positive-controls
